PubChem BioAssay AID330 (DTP/NCI, 2004)
Where “and” joins values, the source holds several entries; their conditions need not be identical. Equal values may be shown once. Toxic doses and inconclusive results are not listed. Rule for the calls: active = survival T/C of 150% or more; inactive = T/C below 125% in these data.

Test system: P388 leukemia ip, CD2F1 mice, survival T/C
Assay: NCI In Vivo Anticancer Drug Screen. Data for tumor model P388 Leukemia (intraperitoneal) in CD2F1 (CDF1) mice
Conditions: endpoint: median survival time, higher = longer survival
Method in brief: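 Mice carrying the transplanted tumor received test compound or vehicle. Survival was recorded in each group, and the value is the treated-group measurement divided by that of the vehicle-treated control group.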

[1] = dose: 100.0 mg/kg/injection, schedule: Q01DX009 (ip), vehicle: saline with Tween-80
[2] = dose: 100.0 mg/kg/injection, schedule: Q04DX003 (ip), vehicle: saline with Tween-80
[3] = dose: 200.0 mg/kg/injection, schedule: Q01DX009 (ip), vehicle: saline with Tween-80
[4] = dose: 200.0 mg/kg/injection, schedule: Q04DX003 (ip), vehicle: saline with Tween-80
[5] = dose: 400.0 mg/kg/injection, schedule: Q04DX003 (ip), vehicle: saline with Tween-80
[6] = dose: 100.0 mg/kg/injection, schedule: Q01DX009 (ip), vehicle: saline
[7] = dose: 200.0 mg/kg/injection, schedule: Q01DX009 (ip), vehicle: saline
[8] = dose: 50.0 mg/kg/injection, schedule: Q01DX009 (ip), vehicle: saline with Tween-80
[9] = dose: 50.0 mg/kg/injection, schedule: Q01DX005 (ip), vehicle: Klucel (hydroxypropylcellulose) (HPC)
[10] = dose: 100.0 mg/kg/injection, schedule: Q01DX005 (ip), vehicle: Klucel (hydroxypropylcellulose) (HPC)
[11] = dose: 200.0 mg/kg/injection, schedule: Q01DX005 (ip), vehicle: Klucel (hydroxypropylcellulose) (HPC)
[12] = dose: 60.0 mg/kg/injection, schedule: Q01DX005 (ip), vehicle: saline with Tween-80
[13] = dose: 120.0 mg/kg/injection, schedule: Q01DX005 (ip), vehicle: saline with Tween-80

Measured: T/C

CC1(C)CCC2=C1CC[C@H]1[C@H]2CCC2=CC(=O)CC[C@@]21C
inactive: [1] 90 % of control | [2] 110 % of control | [3] 100 % of control | [4] 105 % of control | [5] 115 % of control

CC(N)=NC(C)C
inactive: dose: 50.0 mg/kg/injection, schedule: Q01DX009 (ip), vehicle: saline 101 % of control | [6] 101 % of control | [7] 99 % of control

CCC(C)C[c-]1[c-][c-][c-][c-]1.[Cl][Zr][Cl].[c-]1[c-][c-][cH-][c-]1 (stereo not given)
inactive: dose: 6.25 mg/kg/injection, schedule: Q04DX002 (ip), vehicle: saline 102 % of control | dose: 12.5 mg/kg/injection, schedule: Q01DX001 (ip), vehicle: saline with Tween-80 100 % of control | dose: 12.5 mg/kg/injection, schedule: Q04DX002 (ip), vehicle: saline 106 % of control | dose: 25.0 mg/kg/injection, schedule: Q01DX001 (ip), vehicle: saline with Tween-80 98 % of control | dose: 25.0 mg/kg/injection, schedule: Q04DX002 (ip), vehicle: saline 100 % of control | dose: 50.0 mg/kg/injection, schedule: Q01DX001 (ip), vehicle: saline with Tween-80 97 % of control

COc1ccc(N=Cc2cccs2)cc1
inactive: dose: 50.0 mg/kg/injection, schedule: Q01DX009 (ip), vehicle: Klucel (hydroxypropylcellulose) (HPC) 94 % of control | dose: 100.0 mg/kg/injection, schedule: Q01DX009 (ip), vehicle: Klucel (hydroxypropylcellulose) (HPC) 114 % of control | dose: 200.0 mg/kg/injection, schedule: Q01DX009 (ip), vehicle: Klucel (hydroxypropylcellulose) (HPC) 105 % of control

CC(C)(C(=O)O)c1ccc(C(=O)O)c(Br)c1
inactive: [8] 91 % of control | [1] 93 % of control | [3] 101 % of control

CCOC(=O)CCN(CC)CC
inactive: dose: 88.0 mg/kg/injection, schedule: Q04DX003 (ip), vehicle: saline 100 % of control | [6] 116 % of control | dose: 132.0 mg/kg/injection, schedule: Q04DX003 (ip), vehicle: saline 95 % of control | [7] 111 % of control | dose: 200.0 mg/kg/injection, schedule: Q04DX003 (ip), vehicle: saline 109 % of control | dose: 300.0 mg/kg/injection, schedule: Q04DX003 (ip), vehicle: saline 109 % of control | dose: 400.0 mg/kg/injection, schedule: Q01DX009 (ip), vehicle: saline 111 % of control | dose: 400.0 mg/kg/injection, schedule: Q04DX003 (ip), vehicle: saline 100 % of control

O=C1CSC(c2ccc(Cl)cc2)N1c1ccc(N2C(=O)CSC2c2ccc(Cl)cc2)cc1 (stereo not given)
inactive: dose: 100.0 mg/kg/injection, schedule: Q01DX001 (ip), vehicle: saline with Tween-80 94 % of control | dose: 200.0 mg/kg/injection, schedule: Q01DX001 (ip), vehicle: saline with Tween-80 91 % of control | dose: 400.0 mg/kg/injection, schedule: Q01DX001 (ip), vehicle: saline with Tween-80 91 % of control

CCCCC1=C([Si](C)(C)C)C(=O)c2ccccc2C1=O
inactive: dose: 25.0 mg/kg/injection, schedule: Q01DX005 (ip), vehicle: Klucel (hydroxypropylcellulose) (HPC) 109 % of control | [9] 110 % of control and 111 % of control and 113 % of control | [10] 115 % of control and 86 % of control | [11] 110 % of control and 118 % of control

O=C(Nc1cccc2c(O)c(N=Nc3ccc(S(=O)(=O)Nc4nccs4)cc3)cc(N=Nc3ccc(S(=O)(=O)Nc4nccs4)cc3)c12)C(Cl)Cl
inactive: [8] 102 % of control | [1] 106 % of control | [3] 98 % of control

C=CC1(C)CC(O)C2C(C)C(=O)OC2C1C(=C)C (stereo not given)
inactive: [1] 100 % of control | [3] 100 % of control | dose: 400.0 mg/kg/injection, schedule: Q01DX009 (ip), vehicle: saline with Tween-80 100 % of control

COC1(OC)C(C#N)=C(c2ccccc2)C1(OC)OC
inactive: dose: 60.0 mg/kg/injection, schedule: Q01DX005 (ip), vehicle: Klucel (hydroxypropylcellulose) (HPC) 115 % of control | dose: 120.0 mg/kg/injection, schedule: Q01DX005 (ip), vehicle: Klucel (hydroxypropylcellulose) (HPC) 102 % of control | dose: 240.0 mg/kg/injection, schedule: Q01DX005 (ip), vehicle: Klucel (hydroxypropylcellulose) (HPC) 101 % of control

CC(=O)Nc1cc2nc3ccc(C)cc3oc-2c(C)c1=O
inactive: dose: 0.78 mg/kg/injection, schedule: Q01DX009 (ip), vehicle: other 113 % of control | dose: 1.56 mg/kg/injection, schedule: Q01DX009 (ip), vehicle: other 98 % of control | dose: 3.13 mg/kg/injection, schedule: Q01DX009 (ip), vehicle: other 98 % of control | dose: 6.25 mg/kg/injection, schedule: Q01DX009 (ip), vehicle: other 103 % of control

COc1ccc(Br)cc1-c1cc2cccc[n+]2o1
inactive: dose: 12.5 mg/kg/injection, schedule: Q01DX009 (ip), vehicle: saline 101 % of control | dose: 25.0 mg/kg/injection, schedule: Q01DX009 (ip), vehicle: saline 109 % of control

O=[n+]1c2c(n([O-])c3cc(Cl)c(Cl)cc31)CCC2
inactive: [12] 95 % of control | [13] 95 % of control

Nc1cccc(SC2CC(=O)N(c3ccc4c(c3)OCO4)C2=O)c1 (stereo not given)
inactive: dose: 100.0 mg/kg/injection, schedule: Q04DX003 (ip), vehicle: Klucel (hydroxypropylcellulose) (HPC) 92 % of control | dose: 200.0 mg/kg/injection, schedule: Q04DX003 (ip), vehicle: Klucel (hydroxypropylcellulose) (HPC) 101 % of control

COc1ccc(Cc2n[nH]c(=S)n2-c2cc(C)ccc2C)cc1OC
inactive: [12] 102 % of control | [13] 91 % of control | dose: 240.0 mg/kg/injection, schedule: Q01DX005 (ip), vehicle: saline with Tween-80 93 % of control

COc1ccc(C(NCCn2cnc3c2c(=O)n(C)c(=O)n3C)c2ccccc2)cc1 (stereo not given)
inactive: dose: 6.25 mg/kg/injection, schedule: Q01DX005 (ip), vehicle: alkali diluted with saline 100 % of control | dose: 12.5 mg/kg/injection, schedule: Q01DX005 (ip), vehicle: alkali diluted with saline 100 % of control | dose: 25.0 mg/kg/injection, schedule: Q01DX005 (ip), vehicle: alkali diluted with saline 96 % of control

S=C([S-])N[N-]c1ccccc1.S=C([S-])N[N-]c1ccccc1.[Ni]
inactive: [2] 97 % of control | [4] 100 % of control | [5] 100 % of control

Cc1cc(C=C2C(=O)OC(C)(C)OC2=O)cc(C)c1O
inactive: [9] 93 % of control | [10] 90 % of control | [11] 103 % of control

COc1cc(/C=C/c2ccc(N(C)C)cc2)oc(=O)c1
inactive: dose: 100.0 mg/kg/injection, schedule: Q04DX002 (ip), vehicle: Klucel (hydroxypropylcellulose) (HPC) 101 % of control | dose: 200.0 mg/kg/injection, schedule: Q04DX002 (ip), vehicle: Klucel (hydroxypropylcellulose) (HPC) 98 % of control | dose: 400.0 mg/kg/injection, schedule: Q04DX002 (ip), vehicle: Klucel (hydroxypropylcellulose) (HPC) 99 % of control

CN1CC[As+](Cc2ccccc2)(c2ccccc2)CC1
inactive: dose: 100.0 mg/kg/injection, schedule: Q01DX001 (ip), vehicle: saline 87 % of control | dose: 200.0 mg/kg/injection, schedule: Q01DX001 (ip), vehicle: saline 102 % of control | dose: 400.0 mg/kg/injection, schedule: Q01DX001 (ip), vehicle: saline 104 % of control

COC1=C(OC)C(=O)C(SCCCc2ccccc2)=CC1=O
inactive: dose: 12.5 mg/kg/injection, schedule: Q04DX002 (ip), vehicle: saline with Tween-80 114 % of control | dose: 25.0 mg/kg/injection, schedule: Q04DX002 (ip), vehicle: saline with Tween-80 112 % of control | dose: 50.0 mg/kg/injection, schedule: Q04DX002 (ip), vehicle: saline with Tween-80 122 % of control
